{"source": "patent US20110070232A1", "about": "“Combination Therapy with an Antitumor Alkaloid” (Pharma Mar, S.A., priority 2008, published 2011)", "key": {"MRI-H-254 tumors": {"tested_on": "MRI-H-254 tumors", "assay_type": "in vivo, mice", "procedure": "Female athymic nude mice (Harlan Sprague Dawley, Madison, Wis.) were utilized for all experiments. Animals were housed in ventilated rack caging with food and water ad libitum. The mice were acclimated for at least 5 days prior to tumor implantation with tumor fragments.\nTreatments were initiated on DPI 20.\n(§1) Tumor size measurements were recorded twice weekly from the treatment initiation until the termination of the study.\n(§2) Mean, standard deviation and standard error of the mean were determined for tumor volume for all animal groups at all assessments. Student's t test was performed on tumor volumes at each measurement day, including at the end of the study, to determine whether there were any statistically significant differences between combination treatment groups and single monotherapy treatment groups."}, "PLC/PRF/5 tumors": {"tested_on": "PLC/PRF/5 tumors", "assay_type": "in vivo, mice", "procedure": "Female athymic nude mice (Harlan Sprague Dawley, Madison, Wis.) were utilized for all experiments. Animals were housed in ventilated rack caging with food and water ad libitum. The mice were acclimated for at least 5 days prior to tumor implantation with a tumor cell suspension.\nThe tumor model used in these studies was PLC/PRF/5 cell line, which was obtained from the ATCC (Manassas, Va.).\nPLC/PRF/5 were grown in Eagle's minimum essential medium supplemented with 10% FBS and 1% L-glutamine. Each animal was implanted SC on the right flank, using a 13G trochar and 1 mL syringe, with 5×10^6 PLC/PRF/5 cells in a 0.2 mL suspension of 50% Matrigel and 50% serum free MEM medium, without antibiotics. Bacterial cultures were performed on aliquots of the cells prepared for implantation.\nTreatments were initiated on DPI 14.\nas §1, §2"}, "[1]": {"details": "PM00104 0.90 IV, docetaxel 16 IP, oxaliplatin 8 IP mg/kg/day (G2, G3, G5, G7, G9), DPI 20, 27, 34"}, "[2]": {"details": "day 14, PM00104 0.90, sorafenib 60 mg/kg/day"}, "[3]": {"details": "day 18, PM00104 0.90, sorafenib 60 mg/kg/day"}, "[4]": {"details": "day 22, PM00104 0.90, sorafenib 60 mg/kg/day"}, "[5]": {"details": "day 25, PM00104 0.90, sorafenib 60 mg/kg/day"}, "[6]": {"details": "day 28, PM00104 0.90, sorafenib 60 mg/kg/day"}}, "note": "Read-outs that look alike come from different tables or passages of the source.", "data": [{"smiles": "COc1c(C)cc2c(c1O)[C@@H]1[C@@H]3Cc4c(OC(C)=O)c(C)c5c(c4[C@H](CNC(=O)/C=C/c4cccc(C(F)(F)F)c4)N3[C@@H](O)[C@H](C2)N1C)OCO5", "note": "[PM00104]", "values": [{"measurement": "% T/C on day 20", "setting": "MRI-H-254 tumors; [1]", "value": 100.2, "unit": "%"}, {"measurement": "% T/C on day 23", "setting": "MRI-H-254 tumors; [1]", "value": 109.3, "unit": "%"}, {"measurement": "% T/C on day 27", "setting": "MRI-H-254 tumors; [1]", "value": 71.6, "unit": "%"}, {"measurement": "% T/C on day 30", "setting": "MRI-H-254 tumors; [1]", "value": 65.4, "unit": "%"}, {"measurement": "% T/C on day 33", "setting": "MRI-H-254 tumors; [1]", "value": 54.2, "unit": "%"}, {"measurement": "% T/C on day 36", "setting": "MRI-H-254 tumors; [1]", "value": 50.0, "unit": "%"}, {"measurement": "% T/C on day 40", "setting": "MRI-H-254 tumors; [1]", "value": 36.1, "unit": "%"}, {"measurement": "% T/C on day 48", "setting": "MRI-H-254 tumors; [1]", "value": 26.9, "unit": "%"}, {"measurement": "% Inhibition", "setting": "MRI-H-254 tumors; day 20, PM00104 0.9 and docetaxel 8 mg/kg/day", "value": "−0.2", "unit": "%"}, {"measurement": "% Inhibition", "setting": "MRI-H-254 tumors; day 20, PM00104 0.9 and docetaxel 16 mg/kg/day", "value": "−0.2", "unit": "%"}, {"measurement": "% Inhibition", "setting": "MRI-H-254 tumors; day 20, PM00104 0.9 and oxaliplatin 4 mg/kg/day", "value": "−0.2", "unit": "%"}, {"measurement": "% Inhibition", "setting": "MRI-H-254 tumors; day 20, PM00104 0.9 and oxaliplatin 8 mg/kg/day", "value": "−0.2", "unit": "%"}, {"measurement": "% Inhibition", "setting": "MRI-H-254 tumors; day 23, PM00104 0.9 and docetaxel 8 mg/kg/day", "value": "−9.3", "unit": "%"}, {"measurement": "% Inhibition", "setting": "MRI-H-254 tumors; day 23, PM00104 0.9 and docetaxel 16 mg/kg/day", "value": "−9.3", "unit": "%"}, {"measurement": "% Inhibition", "setting": "MRI-H-254 tumors; day 23, PM00104 0.9 and oxaliplatin 4 mg/kg/day", "value": "−9.3", "unit": "%"}, {"measurement": "% Inhibition", "setting": "MRI-H-254 tumors; day 23, PM00104 0.9 and oxaliplatin 8 mg/kg/day", "value": "−9.3", "unit": "%"}, {"measurement": "% Inhibition", "setting": "MRI-H-254 tumors; day 27, PM00104 0.9 and docetaxel 8 mg/kg/day", "value": 28.4, "unit": "%"}, {"measurement": "% Inhibition", "setting": "MRI-H-254 tumors; day 27, PM00104 0.9 and docetaxel 16 mg/kg/day", "value": 28.4, "unit": "%"}, {"measurement": "% Inhibition", "setting": "MRI-H-254 tumors; day 27, PM00104 0.9 and oxaliplatin 4 mg/kg/day", "value": 28.4, "unit": "%"}, {"measurement": "% Inhibition", "setting": "MRI-H-254 tumors; day 27, PM00104 0.9 and oxaliplatin 8 mg/kg/day", "value": 28.4, "unit": "%"}, {"measurement": "% Inhibition", "setting": "MRI-H-254 tumors; day 30, PM00104 0.9 and docetaxel 8 mg/kg/day", "value": 34.6, "unit": "%"}, {"measurement": "% Inhibition", "setting": "MRI-H-254 tumors; day 30, PM00104 0.9 and docetaxel 16 mg/kg/day", "value": 34.6, "unit": "%"}, {"measurement": "% Inhibition", "setting": "MRI-H-254 tumors; day 30, PM00104 0.9 and oxaliplatin 4 mg/kg/day", "value": 34.6, "unit": "%"}, {"measurement": "% Inhibition", "setting": "MRI-H-254 tumors; day 30, PM00104 0.9 and oxaliplatin 8 mg/kg/day", "value": 34.6, "unit": "%"}, {"measurement": "% Inhibition", "setting": "MRI-H-254 tumors; day 33, PM00104 0.9 and docetaxel 8 mg/kg/day", "value": 45.8, "unit": "%"}, {"measurement": "% Inhibition", "setting": "MRI-H-254 tumors; day 33, PM00104 0.9 and docetaxel 16 mg/kg/day", "value": 45.8, "unit": "%"}, {"measurement": "% Inhibition", "setting": "MRI-H-254 tumors; day 33, PM00104 0.9 and oxaliplatin 4 mg/kg/day", "value": 45.8, "unit": "%"}, {"measurement": "% Inhibition", "setting": "MRI-H-254 tumors; day 33, PM00104 0.9 and oxaliplatin 8 mg/kg/day", "value": 45.8, "unit": "%"}, {"measurement": "% Inhibition", "setting": "MRI-H-254 tumors; day 36, PM00104 0.9 and docetaxel 8 mg/kg/day", "value": 50.0, "unit": "%"}, {"measurement": "% Inhibition", "setting": "MRI-H-254 tumors; day 36, PM00104 0.9 and docetaxel 16 mg/kg/day", "value": 50.0, "unit": "%"}, {"measurement": "% Inhibition", "setting": "MRI-H-254 tumors; day 36, PM00104 0.9 and oxaliplatin 4 mg/kg/day", "value": 50.0, "unit": "%"}, {"measurement": "% Inhibition", "setting": "MRI-H-254 tumors; day 36, PM00104 0.9 and oxaliplatin 8 mg/kg/day", "value": 50.0, "unit": "%"}, {"measurement": "% Inhibition", "setting": "MRI-H-254 tumors; day 40, PM00104 0.9 and docetaxel 8 mg/kg/day", "value": 63.9, "unit": "%"}, {"measurement": "% Inhibition", "setting": "MRI-H-254 tumors; day 40, PM00104 0.9 and docetaxel 16 mg/kg/day", "value": 63.9, "unit": "%"}, {"measurement": "% Inhibition", "setting": "MRI-H-254 tumors; day 40, PM00104 0.9 and oxaliplatin 4 mg/kg/day", "value": 63.9, "unit": "%"}, {"measurement": "% Inhibition", "setting": "MRI-H-254 tumors; day 40, PM00104 0.9 and oxaliplatin 8 mg/kg/day", "value": 63.9, "unit": "%"}, {"measurement": "% Inhibition", "setting": "MRI-H-254 tumors; day 48, PM00104 0.9 and docetaxel 8 mg/kg/day", "value": 73.1, "unit": "%"}, {"measurement": "% Inhibition", "setting": "MRI-H-254 tumors; day 48, PM00104 0.9 and docetaxel 16 mg/kg/day", "value": 73.1, "unit": "%"}, {"measurement": "% Inhibition", "setting": "MRI-H-254 tumors; day 48, PM00104 0.9 and oxaliplatin 4 mg/kg/day", "value": 73.1, "unit": "%"}, {"measurement": "% Inhibition", "setting": "MRI-H-254 tumors; day 48, PM00104 0.9 and oxaliplatin 8 mg/kg/day", "value": 73.1, "unit": "%"}, {"measurement": "% T/C", "setting": "PLC/PRF/5 tumors; day 14, PM00104 0.45, sorafenib 60 mg/kg/day", "value": 106.5, "unit": "%"}, {"measurement": "% Inhibition", "setting": "PLC/PRF/5 tumors; [2]", "value": "−0.8", "unit": "%"}, {"measurement": "% T/C", "setting": "PLC/PRF/5 tumors; [2]", "value": 100.8, "unit": "%"}, {"measurement": "% T/C", "setting": "PLC/PRF/5 tumors; day 18, PM00104 0.45, sorafenib 60 mg/kg/day", "value": 71.1, "unit": "%"}, {"measurement": "% Inhibition", "setting": "PLC/PRF/5 tumors; [3]", "value": 21.2, "unit": "%"}, {"measurement": "% T/C", "setting": "PLC/PRF/5 tumors; [3]", "value": 78.8, "unit": "%"}, {"measurement": "% T/C", "setting": "PLC/PRF/5 tumors; day 22, PM00104 0.45, sorafenib 60 mg/kg/day", "value": 73.5, "unit": "%"}, {"measurement": "% Inhibition", "setting": "PLC/PRF/5 tumors; [4]", "value": 33.3, "unit": "%"}, {"measurement": "% T/C", "setting": "PLC/PRF/5 tumors; [4]", "value": 66.7, "unit": "%"}, {"measurement": "% T/C", "setting": "PLC/PRF/5 tumors; day 25, PM00104 0.45, sorafenib 60 mg/kg/day", "value": 80.4, "unit": "%"}, {"measurement": "% Inhibition", "setting": "PLC/PRF/5 tumors; [5]", "value": 29.0, "unit": "%"}, {"measurement": "% T/C", "setting": "PLC/PRF/5 tumors; [5]", "value": 71.0, "unit": "%"}, {"measurement": "% T/C", "setting": "PLC/PRF/5 tumors; day 28, PM00104 0.45, sorafenib 60 mg/kg/day", "value": 67.3, "unit": "%"}, {"measurement": "% Inhibition", "setting": "PLC/PRF/5 tumors; [6]", "value": 47.1, "unit": "%"}, {"measurement": "% T/C", "setting": "PLC/PRF/5 tumors; [6]", "value": 52.9, "unit": "%"}, {"measurement": "% T/C", "setting": "PLC/PRF/5 tumors; day 32, PM00104 0.45, sorafenib 60 mg/kg/day", "value": 79.7, "unit": "%"}, {"measurement": "% Inhibition", "setting": "PLC/PRF/5 tumors; day 32, PM00104 0.90, sorafenib 60 mg/kg/day", "value": 54.4, "unit": "%"}]}]}
